{"source": "paper PMC2805098", "about": "(Biochemistry, 2009)", "key": {"Phe223Leu MTHFR [1]": {"target": "T1, Phe223Leu MTHFR (Escherichia coli, UniProt P0AEZ1, F223L)", "assay": "NADPH binding", "conditions": "data not shown"}, "Phe223Leu MTHFR [2]": {"target": "T1, Phe223Leu MTHFR", "assay": "Reductive half-reaction with NADH, stopped-flow", "assay_type": "biochemical"}, "HpaC": {"tested_on": "HpaC", "conditions": "read-out: Km for NADH; 30 °C; cited from earlier work"}, "wild-type MTHFR [3]": {"tested_on": "wild-type MTHFR", "conditions": "25 °C, pH 7.2, cited from earlier work"}, "PheA2": {"tested_on": "PheA2", "conditions": "read-out: Km for NADH; 53 °C; cited from earlier work"}, "wild-type MTHFR [4]": {"tested_on": "wild-type MTHFR", "conditions": "25 °C, pH 7.2; cited from earlier work"}, "Phe223Leu MTHFR [5]": {"target": "T1, Phe223Leu MTHFR", "assay": "NADH-menadione oxidoreductase assay, steady-state", "assay_type": "biochemical"}, "Phe223Ala MTHFR [6]": {"target": "T2, Phe223Ala MTHFR (Escherichia coli, UniProt P0AEZ1, F223A)", "assay": "NADH-menadione oxidoreductase assay, steady-state", "assay_type": "biochemical", "conditions": "[…] μM menadione, varying NADH, 25 °C, pH 7.2"}, "Phe223Ala MTHFR [7]": {"target": "T2, Phe223Ala MTHFR", "assay": "Reductive half-reaction with NADH, stopped-flow", "assay_type": "biochemical"}, "Phe223Leu MTHFR [8]": {"target": "T1, Phe223Leu MTHFR", "assay": "Reaction of reduced enzyme with menadione, stopped-flow", "assay_type": "biochemical", "conditions": "[…] μM menadione, within dead time of the instrument, data not shown"}, "Phe223Ala MTHFR [9]": {"target": "T2, Phe223Ala MTHFR", "assay": "Reaction of reduced enzyme with menadione, stopped-flow", "assay_type": "biochemical", "conditions": "[…] μM menadione, within dead time of the instrument, data not shown"}, "wild-type MTHFR [10]": {"tested_on": "wild-type MTHFR", "conditions": "25 °C, cited from earlier work"}, "Phe223Ala MTHFR [11]": {"target": "T2, Phe223Ala MTHFR", "assay": "NADH-CH2-H4folate oxidoreductase assay, steady-state"}, "Phe223Leu MTHFR [12]": {"target": "T1, Phe223Leu MTHFR", "assay": "Oxidative half-reaction with CH2-H4folate, stopped-flow", "assay_type": "biochemical"}, "Phe223Leu MTHFR [13]": {"target": "T1, Phe223Leu MTHFR", "assay": "NADH-CH2-H4folate oxidoreductase assay, steady-state", "assay_type": "biochemical"}, "wild-type MTHFR [14]": {"tested_on": "wild-type MTHFR", "conditions": "25 °C, pH 7.2, cited from earlier work", "remark": "listed apart in the source"}, "Phe223Ala MTHFR [15]": {"target": "T2, Phe223Ala MTHFR", "assay": "Oxidative half-reaction with CH2-H4folate, stopped-flow", "assay_type": "biochemical"}, "[16]": {"conditions": "25 °C, pH 7.2, anaerobic, 450 nm"}}, "note": "Values joined by “and” are separate entries in the source; they are usually repeats but may differ in a detail not shown here. Equal entries are not always repeated. Where two headings read alike, the source gives them in different places."}
{"compound": "NADPH", "values": [{"measurement": "ability to bind NADPH", "setting": "Phe223Leu MTHFR [1]", "result": "no ability to bind NADPH"}]}
{"compound": "NADH", "values": [{"measurement": "increase in Kd for NADH over wild-type enzyme", "setting": "Phe223Leu MTHFR [2]", "result": 14, "unit": "fold"}, {"measurement": "k2’ maximal observed rate constant for reduction", "setting": "Phe223Leu MTHFR [2]; [16]", "result": "35 ± 1", "unit": "s⁻¹"}, {"measurement": "Km", "setting": "HpaC", "result": 36.8, "unit": "µM"}, {"measurement": "k2’", "setting": "wild-type MTHFR [3]", "result": "55 ± 6", "unit": "s⁻¹"}, {"measurement": "Kd", "setting": "wild-type MTHFR [3]; read-out: Kd for NADH", "result": "32 ± 5", "unit": "µM"}, {"measurement": "Km", "setting": "PheA2", "result": 8.8, "unit": "µM"}, {"measurement": "kcat", "setting": "wild-type MTHFR [4]", "result": "55 ± 8.3", "unit": "s⁻¹"}, {"measurement": "increase in Km for NADH compared to wild-type", "setting": "Phe223Leu MTHFR [5]", "result": 7, "unit": "fold"}, {"measurement": "kcat", "setting": "Phe223Leu MTHFR [5]; […] μM menadione, varying NADH, 25 °C, pH 7.2", "result": "31 ± 4", "unit": "s⁻¹"}, {"measurement": "kcat", "setting": "Phe223Ala MTHFR [6]", "result": "22 ± 4", "unit": "s⁻¹"}, {"measurement": "k2’ maximal observed rate constant for reduction", "setting": "Phe223Ala MTHFR [7]; [16]", "result": "40 ± 2", "unit": "s⁻¹"}, {"measurement": "change in standard free binding energy for NADH", "setting": "Phe223Ala MTHFR [7]; at 298 K, from 40-fold increase in Kd", "result": 2.2, "unit": "kcal/mol"}]}
{"compound": "CC1=CC(=O)c2ccccc2C1=O", "note": "[menadione]", "values": [{"measurement": "time of reaction of reduced enzyme with menadione", "setting": "Phe223Leu MTHFR [8]", "result": "≤ 3", "unit": "ms"}, {"measurement": "time of reaction of reduced enzyme with menadione", "setting": "Phe223Ala MTHFR [9]", "result": "≤ 3", "unit": "ms"}]}
{"compound": "Nc1nc2c(c(=O)[nH]1)N1CN(c3ccc(C(=O)N[C@@H](CCC(=O)O)C(=O)O)cc3)C[C@H]1CN2", "note": "[CH2-H4folate, 5,10-methylenetetrahydrofolate]", "values": [{"measurement": "k5’, slow phase", "setting": "wild-type MTHFR [10]; pH 7.2, slow phase", "result": "10.3 ± 1.0 ^e s^−1"}, {"measurement": "Kd", "setting": "wild-type MTHFR [10]; read-out: Kd for CH2-H4folate, pH 7.2", "result": "11 ± 1", "unit": "µM"}, {"measurement": "decrease in kcat compared to wild-type", "setting": "Phe223Ala MTHFR [11]", "result": 4, "unit": "fold"}, {"measurement": "kcat", "setting": "Phe223Ala MTHFR [11]; anaerobic, 25 °C, pH 7.2", "result": "2.9 s⁻¹ and 2.9 ± 0.5 s⁻¹"}, {"measurement": "theoretical turnover number calculated from the two half-reactions", "setting": "Phe223Ala MTHFR [11]; eq 9, slow phase of oxidation", "result": 4.0, "unit": "s⁻¹"}, {"measurement": "Kd", "setting": "Phe223Leu MTHFR [12]", "result": "9 ± 2", "unit": "µM"}, {"measurement": "increase in rate of oxidation compared to slow phase of wild-type enzyme", "setting": "Phe223Leu MTHFR [12]", "result": 3, "unit": "fold"}, {"measurement": "Ki", "setting": "Phe223Leu MTHFR [13]", "result": "160 ± 27", "unit": "µM"}, {"measurement": "CH2-H4folate concentration above which inhibition was seen", "setting": "Phe223Leu MTHFR [13]; 1000 μM NADH", "result": "exceeding 100 μM"}, {"measurement": "theoretical turnover number calculated from the two half-reactions", "setting": "Phe223Leu MTHFR [13]; eq 8, ping-pong bi-bi", "result": 17, "unit": "s⁻¹"}, {"measurement": "kcat", "setting": "wild-type MTHFR [14]", "result": "10.4 ± 1.0", "unit": "s⁻¹"}, {"measurement": "Ki", "setting": "wild-type MTHFR [14]; read-out: Ki for CH2-H4folate", "result": "320 ± 25", "unit": "µM"}, {"measurement": "Km", "setting": "wild-type MTHFR [14]; read-out: Km for CH2-H4folate", "result": "0.5 ± 0.1", "unit": "µM"}, {"measurement": "Kd", "setting": "Phe223Ala MTHFR [15]", "result": "500 ± 230", "unit": "µM"}, {"measurement": "change in standard free binding energy for CH2-H4folate", "setting": "Phe223Ala MTHFR [15]", "result": 2.3, "unit": "kcal/mol"}, {"measurement": "decrease in affinity for CH2-H4folate compared to wild-type", "setting": "Phe223Ala MTHFR [15]", "result": 45, "unit": "fold"}, {"measurement": "slower rate of oxidation compared to slow phase of wild-type", "setting": "Phe223Ala MTHFR [15]", "result": 2, "unit": "fold"}, {"measurement": "k5’ maximal rate constant, slow phase", "setting": "Phe223Ala MTHFR [15]; 25 °C, pH 7.2, anaerobic, slow phase (~16% of absorbance change)", "result": "4.5 ± 1.1 ^e s^−1"}]}
